According to the supplement of paper PMC10307832:

Assays:
Assay in all cases: relative viability (nuclei count vs DMSO), 5 days (fraction); higher = more cells survive
[1] = compound: C1=CC=C(C(=C1)C2=CC=C(C=C2)C3=CSC4=C3C(=C(C(=O)N4)C#N)O)O + Cc1nc(NC(=O)N2CCC[C@H]2C(N)=O)sc1-c1ccnc(C(C)(C)C(F)(F)F)c1 [Alpelisib] (partner 2 µM)
In short: (§1)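 For relative viability, nuclei counts in treated wells were divided by those in vehicle wells. Lung cancer cell lines had been pin-tool dosed in 1536-well plates the day after seeding and cultured for 5 days, then fixed and stained in one step (final 0.05% Triton X-100, 1% formaldehyde, 1 ug/ml Hoechst) and imaged at 4×. Doses were one drug alone or a fixed anchor-drug dose plus five library-drug doses (not always all listed) in √10 steps, and values are duplicate-plate medians.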

TGX 221 + Pemetrexed = compound: CC1=CN2C(=O)C=C(N=C2C(=C1)C(C)NC3=CC=CC=C3)N4CCOCC4 [TGX 221] + Nc1nc2[nH]cc(CCc3ccc(C(=O)N[C@@H](CCC(=O)O)C(=O)O)cc3)c2c(=O)[nH]1 [Pemetrexed] (partner 0.2 µM)
In short: as §1

[2] = compound: C1=CC=C(C(=C1)C2=CC=C(C=C2)C3=CSC4=C3C(=C(C(=O)N4)C#N)O)O + Cc1nc(Nc2ncc(C(=O)Nc3c(C)cccc3Cl)s2)cc(N2CCN(CCO)CC2)n1 [Dasatinib] (partner 0.075 µM)
In short: as §1

TGX 221 + OSI-027 = compound: CC1=CN2C(=O)C=C(N=C2C(=C1)C(C)NC3=CC=CC=C3)N4CCOCC4 [TGX 221] + COc1cccc2cc(-c3nc([C@H]4CC[C@H](C(=O)O)CC4)n4ncnc(N)c34)[nH]c12 [OSI-027] (partner 0.5 µM)
In short: as §1

EBC-1
relative viability ([1]; first compound 0.08 µM): 0.885
relative viability ([1]; first compound 0.253 µM): 0.877
relative viability ([1]; first compound 0.8 µM): 0.721
relative viability ([1]; first compound 2.53 µM): 0.865
relative viability ([1]; first compound 8 µM): 0.712

EKVX
relative viability (TGX 221 + Pemetrexed; first compound 0.08 µM): 0.404
relative viability (TGX 221 + Pemetrexed; first compound 0.253 µM): 0.356
relative viability (TGX 221 + Pemetrexed; first compound 0.8 µM): 0.34
relative viability (TGX 221 + Pemetrexed; first compound 2.53 µM): 0.375
relative viability (TGX 221 + Pemetrexed; first compound 8 µM): 0.395
relative viability ([1]; first compound 0.08 µM): 0.786
relative viability ([1]; first compound 0.253 µM): 0.995
relative viability ([1]; first compound 0.8 µM): 0.838
relative viability ([1]; first compound 2.53 µM): 0.953
relative viability ([1]; first compound 8 µM): 0.851
relative viability ([2]; first compound 0.08 µM): 0.47
relative viability ([2]; first compound 0.253 µM): 0.724
relative viability ([2]; first compound 0.8 µM): 0.671
relative viability ([2]; first compound 2.53 µM): 0.621
relative viability ([2]; first compound 8 µM): 0.403
relative viability (TGX 221 + OSI-027; first compound 0.08 µM): 0.697
relative viability (TGX 221 + OSI-027; first compound 0.253 µM): 0.708
relative viability (TGX 221 + OSI-027; first compound 0.8 µM): 0.698
relative viability (TGX 221 + OSI-027; first compound 2.53 µM): 0.687
relative viability (TGX 221 + OSI-027; first compound 8 µM): 0.672

EMC-BAC-2
relative viability (TGX 221 + Pemetrexed; first compound 0.08 µM): 0.468
relative viability (TGX 221 + Pemetrexed; first compound 0.253 µM): 0.43
relative viability (TGX 221 + Pemetrexed; first compound 0.8 µM): 0.428
relative viability (TGX 221 + Pemetrexed; first compound 2.53 µM): 0.464
relative viability (TGX 221 + Pemetrexed; first compound 8 µM): 0.463
relative viability ([1]; first compound 0.08 µM): 0.711
relative viability ([1]; first compound 0.253 µM): 0.73
relative viability ([1]; first compound 0.8 µM): 0.748
relative viability ([1]; first compound 2.53 µM): 0.821
relative viability ([1]; first compound 8 µM): 0.697
relative viability ([2]; first compound 0.08 µM): 0.35
relative viability ([2]; first compound 0.253 µM): 0.332
relative viability ([2]; first compound 0.8 µM): 0.306
relative viability ([2]; first compound 2.53 µM): 0.283
relative viability ([2]; first compound 8 µM): 0.316
relative viability (TGX 221 + OSI-027; first compound 0.08 µM): 0.376
relative viability (TGX 221 + OSI-027; first compound 0.253 µM): 0.443
relative viability (TGX 221 + OSI-027; first compound 0.8 µM): 0.348
relative viability (TGX 221 + OSI-027; first compound 2.53 µM): 0.359
relative viability (TGX 221 + OSI-027; first compound 8 µM): 0.366

EPLC-272H
relative viability (TGX 221 + Pemetrexed; first compound 0.08 µM): 0.392
relative viability (TGX 221 + Pemetrexed; first compound 0.253 µM): 0.279
relative viability (TGX 221 + Pemetrexed; first compound 0.8 µM): 0.353
relative viability (TGX 221 + Pemetrexed; first compound 2.53 µM): 0.295
relative viability (TGX 221 + Pemetrexed; first compound 8 µM): 0.303
relative viability ([1]; first compound 0.253 µM): 1.06
relative viability ([1]; first compound 0.8 µM): 0.978
relative viability ([1]; first compound 2.53 µM): 0.977
relative viability ([1]; first compound 8 µM): 0.76
relative viability ([2]; first compound 0.08 µM): 0.311
relative viability ([2]; first compound 0.253 µM): 0.306
relative viability ([2]; first compound 0.8 µM): 0.339
relative viability ([2]; first compound 2.53 µM): 0.407
relative viability ([2]; first compound 8 µM): 0.303
relative viability (TGX 221 + OSI-027; first compound 0.08 µM): 0.273
relative viability (TGX 221 + OSI-027; first compound 0.253 µM): 0.28
relative viability (TGX 221 + OSI-027; first compound 0.8 µM): 0.244
relative viability (TGX 221 + OSI-027; first compound 2.53 µM): 0.293
relative viability (TGX 221 + OSI-027; first compound 8 µM): 0.316

H3255
relative viability (TGX 221 + Pemetrexed; first compound 0.08 µM): 0.54
relative viability (TGX 221 + Pemetrexed; first compound 0.253 µM): 0.71
relative viability (TGX 221 + Pemetrexed; first compound 0.8 µM): 0.487
relative viability (TGX 221 + Pemetrexed; first compound 2.53 µM): 0.562
relative viability (TGX 221 + Pemetrexed; first compound 8 µM): 0.539
relative viability ([1]; first compound 0.08 µM): 0.799
relative viability ([1]; first compound 0.253 µM): 0.778
relative viability ([1]; first compound 0.8 µM): 0.68
relative viability ([1]; first compound 2.53 µM): 0.687
relative viability ([1]; first compound 8 µM): 0.563
relative viability ([2]; first compound 0.08 µM): 0.369
relative viability ([2]; first compound 0.253 µM): 0.352
relative viability ([2]; first compound 0.8 µM): 0.255
relative viability ([2]; first compound 2.53 µM): 0.39
relative viability ([2]; first compound 8 µM): 0.35
relative viability (TGX 221 + OSI-027; first compound 0.08 µM): 0.535
relative viability (TGX 221 + OSI-027; first compound 0.253 µM): 0.593
relative viability (TGX 221 + OSI-027; first compound 0.8 µM): 0.506
relative viability (TGX 221 + OSI-027; first compound 2.53 µM): 0.539
relative viability (TGX 221 + OSI-027; first compound 8 µM): 0.571

HARA
relative viability (TGX 221 + Pemetrexed; first compound 0.08 µM): 0.216
relative viability (TGX 221 + Pemetrexed; first compound 0.253 µM): 0.234
relative viability (TGX 221 + Pemetrexed; first compound 0.8 µM): 0.258
relative viability (TGX 221 + Pemetrexed; first compound 2.53 µM): 0.3
relative viability (TGX 221 + Pemetrexed; first compound 8 µM): 0.221
relative viability ([1]; first compound 0.253 µM): 0.84
relative viability ([1]; first compound 0.8 µM): 0.796
relative viability ([1]; first compound 2.53 µM): 0.932
relative viability ([1]; first compound 8 µM): 0.655
relative viability ([2]; first compound 0.08 µM): 0.241
relative viability ([2]; first compound 0.253 µM): 0.228
relative viability ([2]; first compound 0.8 µM): 0.346
relative viability ([2]; first compound 2.53 µM): 0.292
relative viability ([2]; first compound 8 µM): 0.192
relative viability (TGX 221 + OSI-027; first compound 0.08 µM): 0.447
relative viability (TGX 221 + OSI-027; first compound 0.253 µM): 0.493
relative viability (TGX 221 + OSI-027; first compound 0.8 µM): 0.526
relative viability (TGX 221 + OSI-027; first compound 2.53 µM): 0.501
relative viability (TGX 221 + OSI-027; first compound 8 µM): 0.471

HCC-15
relative viability (TGX 221 + Pemetrexed; first compound 0.08 µM): 0.212
relative viability (TGX 221 + Pemetrexed; first compound 0.253 µM): 0.237
relative viability (TGX 221 + Pemetrexed; first compound 0.8 µM): 0.203
relative viability (TGX 221 + Pemetrexed; first compound 2.53 µM): 0.209
relative viability (TGX 221 + Pemetrexed; first compound 8 µM): 0.203
relative viability ([1]; first compound 0.08 µM): 0.976
relative viability ([1]; first compound 0.253 µM): 1.03
relative viability ([1]; first compound 0.8 µM): 0.943
relative viability ([1]; first compound 2.53 µM): 1.01
relative viability ([1]; first compound 8 µM): 0.819
relative viability ([2]; first compound 0.08 µM): 0.522
relative viability ([2]; first compound 0.253 µM): 0.627
relative viability ([2]; first compound 0.8 µM): 0.601
relative viability ([2]; first compound 2.53 µM): 0.673
relative viability ([2]; first compound 8 µM): 0.61
relative viability (TGX 221 + OSI-027; first compound 0.08 µM): 0.672
relative viability (TGX 221 + OSI-027; first compound 0.253 µM): 0.713
relative viability (TGX 221 + OSI-027; first compound 0.8 µM): 0.754
relative viability (TGX 221 + OSI-027; first compound 2.53 µM): 0.592
relative viability (TGX 221 + OSI-027; first compound 8 µM): 0.681

HCC-44
relative viability (TGX 221 + Pemetrexed; first compound 0.08 µM): 0.681
relative viability (TGX 221 + Pemetrexed; first compound 0.253 µM): 0.646
relative viability (TGX 221 + Pemetrexed; first compound 0.8 µM): 0.655
relative viability (TGX 221 + Pemetrexed; first compound 2.53 µM): 0.643
relative viability (TGX 221 + Pemetrexed; first compound 8 µM): 0.668
relative viability ([1]; first compound 0.08 µM): 0.661
relative viability ([1]; first compound 0.253 µM): 0.796
relative viability ([1]; first compound 0.8 µM): 0.767
relative viability ([1]; first compound 2.53 µM): 0.86
relative viability ([1]; first compound 8 µM): 0.663
relative viability (TGX 221 + OSI-027; first compound 0.253 µM): 0.417
relative viability (TGX 221 + OSI-027; first compound 0.8 µM): 0.51
relative viability (TGX 221 + OSI-027; first compound 2.53 µM): 0.543
relative viability (TGX 221 + OSI-027; first compound 8 µM): 0.41

HCC-78
relative viability (TGX 221 + Pemetrexed; first compound 0.08 µM): 0.827
relative viability (TGX 221 + Pemetrexed; first compound 0.253 µM): 0.928
relative viability (TGX 221 + Pemetrexed; first compound 0.8 µM): 0.771
relative viability (TGX 221 + Pemetrexed; first compound 2.53 µM): 0.877
relative viability (TGX 221 + Pemetrexed; first compound 8 µM): 0.921
relative viability ([1]; first compound 0.08 µM): 0.286
relative viability ([1]; first compound 0.253 µM): 0.485
relative viability ([1]; first compound 0.8 µM): 0.296
relative viability ([1]; first compound 2.53 µM): 0.29
relative viability ([1]; first compound 8 µM): 0.349
relative viability ([2]; first compound 0.08 µM): 0.354
relative viability ([2]; first compound 0.253 µM): 0.388
relative viability ([2]; first compound 0.8 µM): 0.327
relative viability ([2]; first compound 2.53 µM): 0.363
relative viability ([2]; first compound 8 µM): 0.239
relative viability (TGX 221 + OSI-027; first compound 0.08 µM): 0.295
relative viability (TGX 221 + OSI-027; first compound 0.253 µM): 0.385
relative viability (TGX 221 + OSI-027; first compound 0.8 µM): 0.33
relative viability (TGX 221 + OSI-027; first compound 2.53 µM): 0.306
relative viability (TGX 221 + OSI-027; first compound 8 µM): 0.326
